Assay results as given in patent US12059400B2, “Medical compound” (VERA SALUS RICERCA S.R.L., priority 2017, dated 2024).

How the values were obtained:
Assay in all cases: Cell proliferation, crystal violet method
Format in all cases: cell-based
[1] = test system: human melanoma cells (A375); conditions: for IC50: Homo sapiens, A-375, crystal violet, spectrophotometer, read-out: IC50 anti-proliferative effect, Melanoma (A375)
Protocol: (§1) The compound according to the invention, and in particular the synthetic quercetin derivatives described and illustrated herein were investigated in vitro by using human tumour cells and assessing their impact on the tumour proliferative capacity, with regard to the tumours described above. In particular, the following human tumour cell lines were assessed experimentally: 1) HCT116, colon adenocarcinoma cells; 2) H1299, lung adenocarcinoma cells; 3) A375, melanoma cells, and 4) A431, squamous skin cell carcinoma; 5) 786-0, renal carcinoma cells; 6) PC3, prostate carcinoma cells; 7) BT549, mammary carcinoma cells; 8) CAL27, tongue carcinoma cells (belonging to the head-and-neck carcinomas); 9) HepG2, hepatocellular carcinoma cells; 10) PANC-1, pancreas carcinoma cells; 11) T24, bladder carcinoma cells; 12) OVCAR-3, ovarian carcinoma cells. In addition, a normal human cell line, WS1 (skin fibroblasts) was also treated with the novel synthetic compounds.
(§2) Cell proliferation was quantified by the crystal violet method with a spectrophotometer. In short, after acquiring serial images (0, 24 and 48 hrs) with the EVOS XL Cell Imaging System microscope (Thermo Fisher Scientific), the cells imaged at 48 hrs were fixed with paraformaldehyde (4%) and stained with Crystal Violet (1%). Then, the specific absorbance (λ=590 nm) at 48 hrs was measured with a spectrophotometer (Infinite®200 PRO, Tecan). Data analysis was carried out by using ad-hoc Excel files for graphical representation and statistical processing (t-test). Moreover, the results obtained with Crystal Violet were confirmed by using another cell proliferation assessment method based on the real time cellular analyzer XCELLigence RTCA DP (ACEA Biosciences, Inc.). This tool allows cell growth to be monitored from electrical impedance-derived quantitative values (the so-called Cell Index) measured by tiny electrodes located at the base of the culture wells. Proliferation is monitored for several days (5-7) by setting a Cell Index per minute measure on the instrument. The data are analysed by processing various parameters calculated by the dedicated software, such as the cell duplication time, the slope and the Max Cell Index.
(§3) Cell proliferation was quantitated spectrophotometrically by the crystal violet method.

[2] = test system: human colon carcinoma cells (HCT116); conditions: for IC50: Homo sapiens, HCT-116, crystal violet, spectrophotometer, read-out: IC50 anti-proliferative effect, CRC (HCT116)
Protocol: as §1, §2, §3

[3] = test system: human ovarian carcinoma cells (OVCAR-3); conditions: for OVCAR-3 cell growth vs vehicle control: 60 μM, FIG. 11a, 11b; for IC50: Homo sapiens, OVCAR-3, crystal violet, spectrophotometer, read-out: IC50 anti-proliferative effect, OCC - (OVCAR)
Protocol: as §1, §2, §3

IC50 [1] [µM] | IC50 [2] [µM] | IC50 [3] [µM] | SMILES | A375 cell growth vs vehicle control ([1]; 10 μM and 30 μM, FIG. 14) | HCT116 cell growth vs vehicle control ([2]; 10 μM and 30 μM, FIG. 15) | proliferation of melanoma cells (A375) vs vehicle control ([1]; concentration not given, FIG. 12 for Compound 26) | HCT116 cell growth vs vehicle control ([2]; 100 μM, FIG. 3a, 3b, 13a, 13b) | OVCAR-3 cell growth vs vehicle control [3] | A375 cell growth vs vehicle control ([1]; 30 μM and 100 μM, FIG. 16) | HCT116 cell growth vs vehicle control ([2]; 30 μM and 100 μM, FIG. 16)
5.21 | 15.7 |  | CCCCCCCCCCCCCCCC(=O)NCCOCCOc1c(-c2ccc(O)c(O)c2)oc2cc(O)cc(O)c2c1=O [Compound 29a] | significantly inhibited | significantly inhibited |  |  |  |  | 
 | > 1000 |  | O=C(CCCC(=O)NCCOCCOc1c(-c2ccc(O)c(O)c2)oc2cc(O)cc(O)c2c1=O)NCCOCCOc1c(-c2ccc(O)c(O)c2)oc2cc(O)cc(O)c2c1=O [Compound 19a] |  |  |  |  |  |  | 
52.3 | 81.2 |  | O=c1c(OCCOCCO)c(-c2ccc(O)c(O)c2)oc2cc(O)cc(O)c12 [Compound 26] |  |  | significantly inhibits | significantly inhibits |  |  | 
> 1000 | 407 |  | O=C(NCCOCCOc1c(-c2ccc(O)c(O)c2)oc2cc(O)cc(O)c2c1=O)C1CC(C(=O)NCCOCCOc2c(-c3ccc(O)c(O)c3)oc3cc(O)cc(O)c3c2=O)CC(C(=O)NCCOCCOc2c(-c3ccc(O)c(O)c3)oc3cc(O)cc(O)c3c2=O)C1 (centres unmarked) [Compound 22b] |  |  |  |  |  |  | 
5.17 | 3.08 | 11.8 | CC/C=C\C/C=C\C/C=C\C/C=C\C/C=C\C/C=C\CCC(=O)NCCOCCOc1c(-c2ccc(O)c(O)c2)oc2cc(O)cc(O)c2c1=O [Compound 29f] | significantly inhibited | significantly inhibited |  |  | significantly inhibit |  | 
23 | 13.3 |  | O=C(CCCOc1c(-c2ccc(O)c(O)c2)oc2cc(O)cc(O)c2c1=O)N[C@H]1CCCC[C@H]1NC(=O)CCCOc1c(-c2ccc(O)c(O)c2)oc2cc(O)cc(O)c2c1=O [Compound 15a] | significantly inhibited | significantly inhibited |  |  |  |  | 
136 | 49.9 |  | O=C(NCCOCCOc1c(-c2ccc(O)c(O)c2)oc2cc(O)cc(O)c2c1=O)c1cc(C(=O)NCCOCCOc2c(-c3ccc(O)c(O)c3)oc3cc(O)cc(O)c3c2=O)cc(C(=O)NCCOCCOc2c(-c3ccc(O)c(O)c3)oc3cc(O)cc(O)c3c2=O)c1 [Compound 22a] |  |  |  |  |  | inhibit | inhibit
24.6 | 18.6 |  | O=C(CCCOc1c(-c2ccc(O)c(O)c2)oc2cc(O)cc(O)c2c1=O)NCCCOCCOCCOCCCNC(=O)CCCOc1c(-c2ccc(O)c(O)c2)oc2cc(O)cc(O)c2c1=O [Compound 15b] | significantly inhibited | significantly inhibited |  |  |  |  | 
5.89 | 4.36 | 16.1 | CCCCC/C=C\C/C=C\C/C=C\C/C=C\CCCC(=O)NCCOCCOc1c(-c2ccc(O)c(O)c2)oc2cc(O)cc(O)c2c1=O [Compound 29e] | significantly inhibited | significantly inhibited |  |  | significantly inhibit |  | 
1.62 | 0.74 | 5.01 | O=C(NCCOCCOc1c(-c2ccc(O)c(O)c2)oc2cc(O)cc(O)c2c1=O)c1ccc(OCCCCCCOc2ccc(C(=O)NCCOCCOc3c(-c4ccc(O)c(O)c4)oc4cc(O)cc(O)c4c3=O)cc2)cc1 [Compound 19d] | significantly inhibited | significantly inhibited |  |  | significantly inhibit |  | 
3.95 | 1.28 | 7.44 | O=C(NCCOCCOc1c(-c2ccc(O)c(O)c2)oc2cc(O)cc(O)c2c1=O)c1ccc(Oc2ccc(C(=O)NCCOCCOc3c(-c4ccc(O)c(O)c4)oc4cc(O)cc(O)c4c3=O)cc2)cc1 [Compound 19c] | significantly inhibited | significantly inhibited |  |  | significantly inhibit |  | 
89.8 | 112 |  | CCCCCCCCCCCCCCCC(=O)NCCc1ccc(OCCCC(=O)NCCOCCOc2c(-c3ccc(O)c(O)c3)oc3cc(O)cc(O)c3c2=O)c(OCCCC(=O)NCCOCCOc2c(-c3ccc(O)c(O)c3)oc3cc(O)cc(O)c3c2=O)c1 [Compound 36] |  |  |  |  |  | inhibit | inhibit
> 1000 | > 1000 |  | CCCCCCCCCCCCCCCCCCCCCC(=O)NCCOCCOc1c(-c2ccc(O)c(O)c2)oc2cc(O)cc(O)c2c1=O [Compound 29b] |  |  |  |  |  |  | 
 | 378 |  | NCCOCCOc1c(-c2ccc(O)c(O)c2)oc2cc(O)cc(O)c2c1=O [Compound 27] |  |  |  | greater anti-proliferative effects |  |  | 
> 1000 | 304 |  | O=C(NCCOCCOc1c(-c2ccc(O)c(O)c2)oc2cc(O)cc(O)c2c1=O)c1cc(C(=O)NCCOCCOc2c(-c3ccc(O)c(O)c3)oc3cc(O)cc(O)c3c2=O)cc(-c2cc(C(=O)NCCOCCOc3c(-c4ccc(O)c(O)c4)oc4cc(O)cc(O)c4c3=O)cc(C(=O)NCCOCCOc3c(-c4ccc(O)c(O)c4)oc4cc(O)cc(O)c4c3=O)c2)c1 [Compound 25a] |  |  |  |  |  |  | 
7.84 | 5.93 |  | COc1ccc(-c2ccc(C(=O)NCCOCCOc3c(-c4ccc(O)c(O)c4)oc4cc(O)cc(O)c4c3=O)cc2)cc1 [Compound 29g] | significantly inhibited | significantly inhibited |  |  |  |  | 
15.5 | 15.8 |  | O=C(CCCOc1c(-c2ccc(O)c(O)c2)oc2cc(O)cc(O)c2c1=O)NCc1ccc(CNC(=O)CCCOc2c(-c3ccc(O)c(O)c3)oc3cc(O)cc(O)c3c2=O)cc1 [Compound 15c] | significantly inhibited | significantly inhibited |  |  |  |  | 
7.03 | 3.64 |  | CCCCCCCC/C=C\CCCCCCCC(=O)NCCOCCOc1c(-c2ccc(O)c(O)c2)oc2cc(O)cc(O)c2c1=O [Compound 29c] | significantly inhibited | significantly inhibited |  |  |  |  | 
7.73 | 2.89 |  | CCCCC/C=C\C/C=C\CCCCCCCC(=O)NCCOCCOc1c(-c2ccc(O)c(O)c2)oc2cc(O)cc(O)c2c1=O [Compound 29d] | significantly inhibited | significantly inhibited |  |  |  |  | 
7.16 | 12.1 |  | O=C(CCCOc1c(-c2ccc(O)c(O)c2)oc2cc(O)cc(O)c2c1=O)NCC1CCC(CNC(=O)CCCOc2c(-c3ccc(O)c(O)c3)oc3cc(O)cc(O)c3c2=O)CC1 (centres unmarked) [Compound 15d] | significantly inhibited | significantly inhibited |  |  |  |  | 
